Tests used:
[1] = tested on: MCF-7 (mammary; adenocarcinoma); test: Cell proliferation assay (WST-1), MCF-7; assay type: cell-based; settings: MCF-7 cells
Procedure: (§1) A panel of cancer cell lines was obtained from the DCTP Tumor Repository, National Cancer Institute (Fredrick, Md.) or ATCC (Rockville, Md.). Cell cultures were maintained in Hyclone RPMI 1640 medium (Logan, Utah) supplemented with 10% fetal bovine serum and 20 mM HEPES buffer, pH 7.2, at 37° C., 5% CO2 atmosphere. Cultures were maintained at sub-confluent densities.
(§2) For proliferation assays, cells were seeded with the appropriate medium into 96 well plates at 1,000-2,000 cells per well, depending on cell line, and were incubated overnight. The following day, an amount of test compound, DMSO solution (negative control), or Actinomycin D (positive control) was added to the appropriate wells as 10× concentrated stocks prepared in phosphate buffered saline. The cell plates were then incubated for an additional 2-5 days, dependent on cell line, to allow for proliferation to occur. […] Optical density was determined for each well a 450 nm using a Tecan GniosPro plate reader (RTP, NC). The percentage of cell growth was then determined by comparing the cell growth in the presence of test compounds to the DMSO vehicle control treated cells (100% growth) and […] Actinomycin D treated cells (0% growth).

[2] = target: B-Raf (Homo sapiens, UniProt P15056); test: Elution of B-Raf from ATP-Sepharose column by compound (Proteome Mining), IC50 estimate; assay type: binding; settings: estimated from percent of protein eluted from ATP-Sepharose column, gel densitometry; read-out: Approximate IC50 for B-Raf
Procedure: A proteome containing a known quantity of Her2, EGFR, and B-Raf was run over an ATP-Sepharose™ column in order to bind all purine-binding proteins. See, WO 00/63694 and U.S. Provisional Application No. 60/453,697 filed Jan. 22, 2003, each of which is incorporated by reference in its entirety. The ATP-Sepharose™ was washed several times, and then eluted with the compound of Formula III. The experiment was run in duplicate at concentrations of 20 μM, 100 μM, and 500 μM of the compound of Formula III. The eluted fractions were run on a 1-dimensional SDS polyacrylamide gel. Gels were stained with a fluorescent stain such as sypro ruby (a highly sensitive fluorescent protein stain that can readily detect less than 1 fmol of total protein, i.e., less than 0.04 ng for a 40 kDa protein). The gels were imaged using a standard flat bed gel imager and the amount of protein estimated by densiometry. The percent of protein eluted from the column at each concentration was determined and IC50 values were calculated from these estimates. Where necessary, the eluted proteins were cut out of the gel, and identified using mass spectral techniques.
These steps were repeated with each of the compounds of Formulas IV-X, MTX, and the c series derivative.

[3] = target: T1, propionyl-CoA carboxylase subunit beta (PCCB) (Sus scrofa, UniProt P79384); test: Elution of PCCB from ATP-Sepharose column loaded with porcine liver proteome, IC50 estimate; assay type: binding; settings: estimated from percent of protein eluted from ATP-Sepharose column, read-out: Approximate IC50 for PCCB
T1 construct: a porcine liver proteome was run over an ATP-Sepharose™ column; from tissue; host or cells: porcine liver
T1 sequence (P79384 29-539): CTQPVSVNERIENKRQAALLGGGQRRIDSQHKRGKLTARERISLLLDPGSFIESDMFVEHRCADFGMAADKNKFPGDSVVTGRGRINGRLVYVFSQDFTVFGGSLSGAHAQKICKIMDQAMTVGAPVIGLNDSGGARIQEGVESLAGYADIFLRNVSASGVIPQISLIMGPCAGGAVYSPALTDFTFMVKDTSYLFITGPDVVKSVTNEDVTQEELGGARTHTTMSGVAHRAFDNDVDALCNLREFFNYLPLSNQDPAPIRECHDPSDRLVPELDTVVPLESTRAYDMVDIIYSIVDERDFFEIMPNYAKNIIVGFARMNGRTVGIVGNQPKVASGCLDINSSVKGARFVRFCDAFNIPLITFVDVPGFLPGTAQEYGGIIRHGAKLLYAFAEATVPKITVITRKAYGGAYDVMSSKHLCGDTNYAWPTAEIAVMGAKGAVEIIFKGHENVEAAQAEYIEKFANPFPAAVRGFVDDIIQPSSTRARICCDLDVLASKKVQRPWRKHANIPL
T1 sequence (P0DTA4 53-730 partner): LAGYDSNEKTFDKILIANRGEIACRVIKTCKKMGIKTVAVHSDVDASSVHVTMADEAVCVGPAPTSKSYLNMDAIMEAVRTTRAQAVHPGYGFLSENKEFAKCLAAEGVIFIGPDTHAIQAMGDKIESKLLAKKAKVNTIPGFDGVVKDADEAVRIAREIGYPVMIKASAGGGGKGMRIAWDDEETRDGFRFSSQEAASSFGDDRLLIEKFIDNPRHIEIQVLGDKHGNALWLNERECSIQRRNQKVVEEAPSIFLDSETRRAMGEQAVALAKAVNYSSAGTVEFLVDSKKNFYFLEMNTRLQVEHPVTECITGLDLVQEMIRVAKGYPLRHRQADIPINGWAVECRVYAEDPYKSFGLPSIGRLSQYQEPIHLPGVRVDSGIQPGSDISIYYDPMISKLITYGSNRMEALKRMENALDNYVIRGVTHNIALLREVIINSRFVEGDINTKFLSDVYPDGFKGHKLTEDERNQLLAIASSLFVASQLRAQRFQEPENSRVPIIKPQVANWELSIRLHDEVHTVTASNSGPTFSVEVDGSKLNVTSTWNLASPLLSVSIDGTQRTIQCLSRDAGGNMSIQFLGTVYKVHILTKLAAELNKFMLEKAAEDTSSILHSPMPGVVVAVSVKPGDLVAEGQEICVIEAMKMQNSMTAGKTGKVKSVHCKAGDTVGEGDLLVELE
Procedure: Similar experiments were carried out to compare the IC50 values for PYC, PCCA, and PCCB. In these trials, a porcine liver proteome was run over an ATP-Sepharose™ column to bind all purine-binding proteins. The ATP-Sepharose™ column was washed several times, and then eluted with the compound of Formula III at concentrations of 1 μM, 5 μM, 10 μM, 50 μM, 100 μM, and 500 μM to identify proteins that bound to this compound.
Gels were stained with a fluorescent stain such as sypro ruby (a highly sensitive fluorescent protein stain that can readily detect less than 1 fmol of total protein, i.e., less than 0.04 ng for a 40 kDa protein). The gels were imaged using a standard flat bed gel imager and the amount of protein estimated by densiometry. The percent of protein eluted from the column at each concentration was determined and IC50 values were calculated from these estimates. Where necessary, the eluted proteins were cut out of the gel, and identified using mass spectral techniques.
The values obtained were then compared to those for DHFR.

[4] = tested on: OVCAR8 (ovarian; adenocarcinoma); test: Cell proliferation assay (WST-1), OVCAR8; assay type: cell-based; settings: OVCAR8 cells
Procedure: as §1, §2

[5] = tested on: PC-3 (N/A; carcinoma); test: Cell proliferation assay (WST-1), PC-3; assay type: cell-based; settings: PC-3 cells
Procedure: as §1, §2

B-Raf, sequence (P15056 whole entry, species assumed): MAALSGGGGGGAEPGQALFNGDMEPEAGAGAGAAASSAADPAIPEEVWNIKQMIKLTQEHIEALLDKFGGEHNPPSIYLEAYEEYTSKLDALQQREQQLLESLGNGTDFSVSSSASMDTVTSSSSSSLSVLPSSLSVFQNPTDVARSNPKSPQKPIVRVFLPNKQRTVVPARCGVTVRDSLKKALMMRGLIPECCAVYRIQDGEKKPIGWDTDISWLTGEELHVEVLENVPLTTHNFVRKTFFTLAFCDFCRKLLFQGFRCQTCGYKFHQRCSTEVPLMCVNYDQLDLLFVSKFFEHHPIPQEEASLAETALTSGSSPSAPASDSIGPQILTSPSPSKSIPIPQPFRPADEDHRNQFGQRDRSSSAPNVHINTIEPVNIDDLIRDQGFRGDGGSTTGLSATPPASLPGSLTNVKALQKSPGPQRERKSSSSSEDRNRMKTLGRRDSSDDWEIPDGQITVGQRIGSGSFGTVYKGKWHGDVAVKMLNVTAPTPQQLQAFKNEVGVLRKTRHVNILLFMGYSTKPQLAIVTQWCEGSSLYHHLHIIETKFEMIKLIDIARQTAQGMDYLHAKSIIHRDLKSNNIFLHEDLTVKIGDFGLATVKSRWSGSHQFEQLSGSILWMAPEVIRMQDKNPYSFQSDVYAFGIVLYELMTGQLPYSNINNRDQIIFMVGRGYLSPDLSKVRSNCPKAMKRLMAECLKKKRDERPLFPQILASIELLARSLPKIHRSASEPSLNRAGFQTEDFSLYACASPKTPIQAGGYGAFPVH

Row | Structure (SMILES) | Fold Improvement in Cell Proliferation IC50 Compared to MTX [1] [fold] | IC50 [2] [µM] | IC50 [3] [µM] | Fold Improvement in Cell Proliferation IC50 Compared to MTX [4] [fold] | Fold Improvement in Cell Proliferation IC50 Compared to MTX [5] [fold]
1 | C#CCN(Cc1cnc2nc(N)nc(N)c2n1)c1ccc(C(=O)NC(CCC(=O)O)C(=O)O)cc1C (stereo not drawn) [Formula III, 2-{4-[(2,4-diamino-pteridin-6-ylmethyl)-prop-2-ynyl-amino]-3-methyl-benzoylamino}-pentanedioic acid] | >1 | 5 | 3.5 | >2 | >1
2 | Cc1cc(C(=O)NC(CCC(=O)O)C(=O)O)ccc1N(Cc1ccoc1)Cc1cnc2nc(N)nc(N)c2n1 (stereo not drawn) [Formula VII] |  |  | 3 |  | 
3 | C#CCN(Cc1cnc2nc(N)nc(N)c2n1)c1ccc(C(=O)NC(CCC(=O)O)C(=O)O)cc1OC(F)(F)F (stereo not drawn) [Formula IX] |  |  | 14 |  | 
4 | C#CCN(Cc1cnc2nc(N)nc(N)c2n1)c1ccc(C(=O)NC(CCC(=O)O)C(=O)O)cc1OC (stereo not drawn) [Formula VIII] |  | 5 | 3.5 |  | 

— patent US20060035901A1, “Methotrexate derivatives useful for treating cancer and arthritis” (Serenex, Inc., priority 2004, published 2006)
